This is an account of results in patent US11304886B2, “N-acyl sarcosines as antimicrobials for preservation of home and personal care products” (GALAXY SURFACTANTS LTD., priority 2016, dated 2022).

Assay in all cases: Minimum Inhibitory Concentration (MIC)
Common to all, as to type: cell-based

Test [1] concerns Pseudomonas aeruginosa ATCC 15442.
Test [2] has as its system Escherichia coli ATCC 8739.
The test system of test [3] is Staphylococcus aureus ATCC 6538.
The test system of test [4] is Propionibacterium acnes ATCC 1953.
Test [5] concerns Candida albicans ATCC 10231.
The subject of test [6] is Aspergillus niger ATCC 16404.
Test [7] has as its system Malassezia furfur MTCC 1374.

Each structure is given as a SMILES string. Where only a bound is given, the exact number is not on record here.

As to `CCCCCCCC(=O)N(C)CC(=O)O` [N-Capryloyl sarcosine, N-Capryloyl Sarcosine], the “MIC (%)” value in test [1] is 0.7%; in test [2] it was 0.7%; in test [3], 0.7%; in test [4] it was 0.6%; in test [5] it was 0.7%; in test [6], greater than 1.0%. Also, in test [7], the “MIC (%)” value is listed as 0.6%.
Regarding `OCCOc1ccccc1` [phenoxy ethanol, 2-phenoxy ethanol, reference compound], the “MIC (%)” value in test [1] is on record as 0.8%; in test [2] it was 0.6%; in test [3], 0.8%; in test [4] it was 0.4%; in test [5], 0.6%; in test [6], 0.9%. In test [7], the “MIC (%)” value is recorded as 0.6%.
On to `C=CCCCCCCCCC(=O)N(C)CC(=O)O` [N-Undecylenoyl sarcosine, N-Undecylenoyl Sarcosine], for which the “MIC (%)” value in test [1] is reported as 0.6%; in test [2] it was 0.7%; in test [3] it was 0.6%; in test [4], 0.7%; in test [5], 0.6%; in test [6], greater than 1.0%. The “MIC (%)” value in test [7] worked out at 0.6%.
